Where “and” joins values, the source holds several entries; their conditions need not be identical. Equal entries are not always repeated.
Biological target: PKCα (Homo sapiens, UniProt P17252)
Test: [3H]PDBu displacement, 96-well plate filtration binding assay
Settings: for Displacement assay raw data (CCPM): single replicate wells; for Residual [^3H]PDBu binding to PKCα (% of control): 20 μM compound concentration, mean + SEM, n = 2–8

| Residual [^3H]PDBu binding to PKCα (% of control) | Displacement of [^3H]PDBu from PKCα (in words) (concentration range of 0.2–30 μM) | Compound | Displacement assay raw data (CCPM) (0,2 µM test substance) | Displacement assay raw data (CCPM) (1 µM test substance) | Displacement assay raw data (CCPM) (4 µM test substance) | Displacement assay raw data (CCPM) (10 µM test substance) | Displacement assay raw data (CCPM) (20 µM test substance) | Displacement assay raw data (CCPM) (30 µM test substance) |
| --- | --- | --- | --- | --- | --- | --- | --- | --- |
| 85.3 ± 7.4 % of control | strongest concentration dependence | CCCCCCOC(=O)c1nc(CO)nc(OCCCCCC)c1C [Compound 2a, Hexyl 6-(hexyloxy)-2-(hydroxymethyl)-5-methylpyrimidine-4-carboxylate] | 7949 CCPM and 9699 CCPM and 8544 CCPM and 12898 CCPM and 11646 CCPM and 12786 CCPM | 7626 CCPM and 8685 CCPM and 9639 CCPM and 11993 CCPM and 12245 CCPM and 12903 CCPM | 7496 CCPM and 8524 CCPM and 9257 CCPM and 11421 CCPM and 11194 CCPM and 11877 CCPM | 7467 CCPM and 7915 CCPM and 7828 CCPM and 11547 CCPM and 11263 CCPM and 11635 CCPM | 6283 CCPM and 8361 CCPM and 8257 CCPM and 10077 CCPM and 11544 CCPM and 10260 CCPM | 6598 CCPM and 7105 CCPM and 7428 CCPM and 10040 CCPM and 10575 CCPM and 9972 CCPM |
| 88.5 ± 5.7 % of control | – | CCCCCCCOC(=O)c1nc(CO)nc(OCCCCCCC)c1C [Compound 2b, Heptyl 6-(heptyloxy)-2-(hydroxymethyl)-5-methylpyrimidine-4-carboxylate] | 13052 CCPM and 11682 CCPM and 11827 CCPM and 17977 CCPM and 18315 CCPM and 17029 CCPM | 11258 CCPM and 11582 CCPM and 12305 CCPM and 17512 CCPM and 18998 CCPM and 18500 CCPM | 10048 CCPM and 11019 CCPM and 11674 CCPM and 17585 CCPM and 17180 CCPM and 19863 CCPM | 10753 CCPM and 10221 CCPM and 10149 CCPM and 14691 CCPM and 16431 CCPM and 16220 CCPM | 9620 CCPM and 9492 CCPM and 9656 CCPM and 14771 CCPM and 14660 CCPM and 15872 CCPM | 9760 CCPM and 10346 CCPM and 10712 CCPM and 16581 CCPM and 14486 CCPM and 14880 CCPM |
| 93.5 ± 6.5 % of control | – | CCCCCCCCOC(=O)c1nc(CO)nc(OCCCCCCCC)c1C [Compound 2c, Octyl 2-(hydroxymethyl)-5-methyl-6-(octyloxy)pyrimidine-4-carboxylate] | 12223 CCPM and 10832 CCPM and 10701 CCPM and 18273 CCPM and 16005 CCPM and 17696 CCPM | 12118 CCPM and 12391 CCPM and 11284 CCPM and 18079 CCPM and 16200 CCPM and 17048 CCPM | 10666 CCPM and 10448 CCPM and 9501 CCPM and 18957 CCPM and 15769 CCPM and 16408 CCPM | 10483 CCPM and 10217 CCPM and 10554 CCPM and 15009 CCPM and 15224 CCPM and 15278 CCPM | 10634 CCPM and 9873 CCPM and 9750 CCPM and 16572 CCPM and 15241 CCPM and 16254 CCPM | 11684 CCPM and 11210 CCPM and 10063 CCPM and 15855 CCPM and 15398 CCPM and 15526 CCPM |
| 89.7 ± 7.1 % of control | – | CCCC(CCC)COC(=O)c1nc(CO)nc(OCC(CCC)CCC)c1C [Compound 2d, 2-propylpentyl 2-(hydroxymethyl)-5-methyl-6-[(2-propylpentyl)oxy]pyrimidine-4-carboxylate] | 9740 CCPM and 9459 CCPM and 9651 CCPM and 5569 CCPM and 5686 CCPM and 5559 CCPM | 7644 CCPM and 9362 CCPM and 9109 CCPM and 5694 CCPM and 5798 CCPM and 6238 CCPM | 7518 CCPM and 9016 CCPM and 8738 CCPM and 4914 CCPM and 5158 CCPM and 5369 CCPM | 7586 CCPM and 7877 CCPM and 7985 CCPM and 4832 CCPM and 5595 CCPM and 4913 CCPM | 7408 CCPM and 8501 CCPM and 8368 CCPM and 4542 CCPM and 5847 CCPM and 5492 CCPM | 8520 CCPM and 7381 CCPM and 8758 CCPM and 5782 CCPM and 4556 CCPM and 4977 CCPM |
| 91.4 ± 2.3 % of control | – | CCCCC(CC)OC(=O)c1nc(CO)nc(OC(CC)CCCC)c1C (stereo not drawn) [Compound 2e, Heptan-3-yl 6-(heptan-3-yloxy)-2-(hydroxymethyl)-5-methylpyrimidine-4-carboxylate] | 13386 CCPM and 12773 CCPM and 11586 CCPM and 9937 CCPM and 11273 CCPM and 11368 CCPM | 12486 CCPM and 13520 CCPM and 13561 CCPM and 10438 CCPM and 10771 CCPM and 10331 CCPM | 13244 CCPM and 12192 CCPM and 13129 CCPM and 11362 CCPM and 12373 CCPM and 12221 CCPM | 12416 CCPM and 12269 CCPM and 12041 CCPM and 10898 CCPM and 11193 CCPM and 10978 CCPM | 11475 CCPM and 10474 CCPM and 10581 CCPM and 9805 CCPM and 9920 CCPM and 10092 CCPM | 11584 CCPM and 10772 CCPM and 11119 CCPM and 8897 CCPM and 9568 CCPM and 9434 CCPM |
| 90.5 ± 6.0 % of control | – | Cc1c(OCc2cccc(C(F)(F)F)c2)nc(CO)nc1C(=O)OCc1cccc(C(F)(F)F)c1 [Compound 2f, 3-(trifluoromethyl)benzyl 2-(hydroxymethyl)-5-methyl-6-[[3-(trifluoromethyl)benzyl]oxy]pyrimidine-4-carboxylate] | 5892 CCPM and 5535 CCPM and 6214 CCPM and 6493 CCPM and 5681 CCPM and 5606 CCPM | 5789 CCPM and 5065 CCPM and 5775 CCPM and 6129 CCPM and 5689 CCPM | 5908 CCPM and 5351 CCPM and 5505 CCPM and 4754 CCPM and 5387 CCPM and 5468 CCPM | 5951 CCPM and 5634 CCPM and 5541 CCPM and 5247 CCPM and 5397 CCPM and 4899 CCPM | 5509 CCPM and 4316 CCPM and 5047 CCPM and 4822 CCPM and 4931 CCPM and 4834 CCPM | 5249 CCPM and 4747 CCPM and 5046 CCPM and 4792 CCPM and 4631 CCPM and 4673 CCPM |
| 106.7 ± 5.0 % of control | – | COC(=O)c1nc(CO)nc(OCc2cccc(C(F)(F)F)c2)c1C [Compound 2g, Methyl 2-(hydroxymethyl)-5-methyl-6-[[3-(trifluoromethyl)benzyl]oxy]pyrimidine-4-carboxylate] | 5444 CCPM and 5572 CCPM and 6419 CCPM and 5626 CCPM and 5372 CCPM and 5082 CCPM | 5331 CCPM and 5641 CCPM and 6328 CCPM and 5502 CCPM and 5786 CCPM and 5467 CCPM | 5858 CCPM and 5969 CCPM and 5764 CCPM and 5341 CCPM and 5546 CCPM and 5465 CCPM | 6071 CCPM and 6111 CCPM and 6173 CCPM and 5469 CCPM and 6077 CCPM and 5316 CCPM | 5096 CCPM and 6099 CCPM and 5970 CCPM and 5477 CCPM and 5384 CCPM and 5474 CCPM | 5416 CCPM and 5047 CCPM and 5574 CCPM and 5225 CCPM and 5482 CCPM and 5411 CCPM |
| 86.8 ± 7.8 % of control | – | CCCCC(CC)OC(=O)c1nc(CO)nc(OCc2cccc(C(F)(F)F)c2)c1C (stereo not drawn) [Compound 2h, Heptan-3-yl 2-(hydroxymethyl)-5-methyl-6-[[3-(trifluoromethyl)benzyl]oxy]pyrimidine-4-carboxylate] | 5892 CCPM and 5535 CCPM and 6214 CCPM and 5732 CCPM and 5572 CCPM and 5002 CCPM | 5789 CCPM and 5065 CCPM and 5775 CCPM and 5836 CCPM and 5313 CCPM and 4792 CCPM | 5908 CCPM and 5351 CCPM and 5505 CCPM and 5457 CCPM and 5305 CCPM and 4736 CCPM | 5951 CCPM and 5634 CCPM and 5541 CCPM and 4751 CCPM and 4877 CCPM and 4485 CCPM | 5509 CCPM and 4316 CCPM and 5047 CCPM and 4061 CCPM and 4136 CCPM and 4187 CCPM | 5249 CCPM and 4747 CCPM and 5046 CCPM and 3715 CCPM and 4141 CCPM and 3683 CCPM |
